Measured values: patent US20250368961A1, “Medium for producing a bile canaliculus and method for producing a bile canaliculus using the same” (INSTITUTE OF SCIENCE TOKYO, priority 2024, published 2025)

Assays:
hepatocytes [1] = assay: Effect of each medium component on bile canaliculi formation (component removal); assay type: cell-based, human; conditions: normal culture, Day 4; named component removed from the medium of the instant invention
Description: (§1) The frozen stock of human primary-cultured hepatocytes (PHHs) was thawed using commercially available thawing medium, and cell number was counted using trypan blue. To a 96-well plate coated with collagen I, PHHs were plated at 1.0×10^5 cells/well seeding density, using the medium of the instant invention, commercial medium A, commercial medium B, and commercial medium C such that the medium volume was 75 μL/well, and cultured at 37° C. under 5% CO2 condition. Four hours, 1 day, 2 days, and 4 days after seeding, the total amount of medium was replaced using each medium such that the medium volume was 75 μL/well, and the plate was cultured until Day 7 of culture.
Eight types of media in total: the medium of the instant invention, and media prepared by removing the main six components (HGF, OsM, DEX, Frk, DMSO, S-220) from the medium of the instant invention (in some case, 2 components were removed), were prepared, and each was used for performing normal culture. Phase contrast microscopy was performed on Day 4 of culture. […] Thereafter, the culture was washed three times with HBSS (+), the medium for each condition was added at 75 μL/well, then the culture was incubated in CO2 incubator (5% CO2, 37° C.) for 10 minutes and observed by fluorescence microscopy.

hepatocytes [2] = assay: Effectiveness of different K-Ras activating agents in bile canaliculi formation; assay type: cell-based, human; conditions: normal culture, Day 4; agent added to medium of the instant invention without OsM
Description: as §1
Two types of media were used as controls: the medium of the instant invention without OsM (a negative control), and the medium of the instant invention (a positive control), and four more types of media were prepared based on the negative control to which a K-Ras activating agent other than OsM (IL-6, LIF, CNTF or Ras-GRF) was added (six types of media in total). Each medium was used for carrying out normal culture, and on culture Day 4 the medium was removed and 4 μmol/L CDFDA solution was added at 100 μL/well. The culture was incubated in a CO2 incubator (5% CO2, 37° C.) for 10 minutes, and observed using fluorescence microscopy.

oncostatin M [OsM]
accumulation of CDFDA in bile canaliculi (fluorescence microscopy image) (hepatocytes [1]): almost no accumulation of CDFDA in the bile canaliculi | boundaries between cells (phase contrast microscope image) (hepatocytes [1]): boundaries between cells could hardly be observed

IL-6: IL-6 family cytokine, K-Ras activating agent other than OsM
level of accumulation of CDFDA relative to OsM (positive control) (hepatocytes [2]): comparable level of accumulation of CDFDA
